Reference: patent US12673944B2, “Compounds having inhibitory activity against glucosylceramide synthase or pharmaceutically acceptable salt thereof, processes for preparing the same, and pharmaceutical compositions comprising the same” (YUHAN CORPORATION, priority 2019, dated 2026)

Tests used:
[1] = biological target: T1, glucosylceramide synthase (GCS) (Homo sapiens, UniProt Q16739); experiment: GCS enzyme inhibition assay (A549 cell lysate, NBD C6-ceramide, HPLC fluorescence); type: biochemical; settings: inhibitory activity against GCS, 37° C., 90 minutes
T1 construct: The obtained supernatant was used; host or cells: A549 cells (lysate supernatant after sonication)
T1 sequence (Q16739 1-394): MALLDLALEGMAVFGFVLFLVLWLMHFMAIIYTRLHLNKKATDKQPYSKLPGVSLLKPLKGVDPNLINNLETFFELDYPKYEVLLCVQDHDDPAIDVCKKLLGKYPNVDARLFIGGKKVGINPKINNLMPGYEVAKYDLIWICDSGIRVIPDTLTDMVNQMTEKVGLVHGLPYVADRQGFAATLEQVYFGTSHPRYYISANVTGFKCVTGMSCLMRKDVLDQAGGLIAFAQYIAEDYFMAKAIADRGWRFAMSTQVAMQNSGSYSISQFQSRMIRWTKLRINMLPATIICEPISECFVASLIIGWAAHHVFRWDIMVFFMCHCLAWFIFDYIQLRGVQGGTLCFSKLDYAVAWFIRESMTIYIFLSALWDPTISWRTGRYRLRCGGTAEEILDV
Summary of the method: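 Percent GCS activity was derived from the GlcCer share of Cer plus GlcCer areas, scaled from ibiglustat (0%) to DMSO (100%). Enzyme came from sonicated A549 lysate in 50 mM HEPES pH 7.3; 90 min incubation at 37° C, chloroform/methanol stop and extraction.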

[2] = test system: GM1 production in Jurkat cells; experiment: cells; type: cell-based; settings: Homo sapiens, Jurkat, 72 h

CC1(C)COc2cc(-c3cccnc3F)ccc2C1NC(=O)O[C@@H]1CN2CCC1CC2 (stereo partly drawn) [Example 222, (S)-quinuclidin-3-yl (7-(2-fluoropyridin-3-yl)-3,3-dimethylchroman-4-yl)carbamate]
IC50 [1]: 0.79 nM
IC50 [2]: 6.59 nM

Cc1ccc(-c2ccc3c(c2)OCC(C)(C)C3NC(=O)O[C@@H]2CN3CCC2CC3)c(Cl)c1 (stereo partly drawn) [Example 223, (S)-quinuclidin-3-yl (7-(2-chloro-4-methylphenyl)-3,3-dimethylchroman-4-yl)carbamate]
IC50 [1]: 1.58 nM
IC50 [2]: 1.6 nM

Cc1ccc(Cl)c(-c2ccc3c(c2)OCC(C)(C)C3NC(=O)O[C@@H]2CN3CCC2CC3)c1 (stereo partly drawn) [Example 224, (S)-quinuclidin-3-yl (7-(2-chloro-5-methylphenyl)-3,3-dimethylchroman-4-yl)carbamate]
IC50 [1]: 0.62 nM
IC50 [2]: 0.6 nM

Cc1ccc(-c2ccc3c(c2)OCC(C)(C)C3NC(=O)O[C@@H]2CN3CCC2CC3)c(F)c1 (stereo partly drawn) [Example 225, (S)-quinuclidin-3-yl (7-(2-fluoro-4-methylphenyl)-3,3-dimethylchroman-4-yl)carbamate]
IC50 [1]: 0.45 nM
IC50 [2]: 1.7 nM

Cc1ccc(-c2ccc3c(c2)OCC(C)(C)C3NC(=O)O[C@@H]2CN3CCC2CC3)cc1Cl (stereo partly drawn) [Example 226, (S)-quinuclidin-3-yl (7-(3-chloro-4-methylphenyl)-3,3-dimethylchroman-4-yl)carbamate]
IC50 [1]: 0.71 nM
IC50 [2]: 1.3 nM

Cc1cc(F)ccc1-c1ccc2c(c1)OCC(C)(C)C2NC(=O)O[C@@H]1CN2CCC1CC2 (stereo partly drawn) [Example 227, (S)-quinuclidin-3-yl (7-(4-fluoro-2-methylphenyl)-3,3-dimethylchroman-4-yl)carbamate]
IC50 [1]: 0.56 nM
IC50 [2]: 4.5 nM

Cc1ccc(-c2ccc3c(c2)OCC(C)(C)C3NC(=O)O[C@@H]2CN3CCC2CC3)cc1F (stereo partly drawn) [Example 228, (S)-quinuclidin-3-yl (7-(3-fluoro-4-methylphenyl)-3,3-dimethylchroman-4-yl)carbamate]
IC50 [1]: 0.55 nM
IC50 [2]: 1.3 nM

Cc1cc(-c2ccc3c(c2)OCC(C)(C)C3NC(=O)O[C@@H]2CN3CCC2CC3)ccc1F (stereo partly drawn) [Example 229, (S)-quinuclidin-3-yl (7-(4-fluoro-3-methylphenyl)-3,3-dimethylchroman-4-yl)carbamate]
IC50 [1]: 0.71 nM
IC50 [2]: 2.1 nM

CC1(C)COc2cc(-c3ccc(Cl)cc3Cl)ccc2C1NC(=O)O[C@@H]1CN2CCC1CC2 (stereo partly drawn) [Example 230, (S)-quinuclidin-3-yl (7-(2,4-dichlorophenyl)-3,3-dimethylchroman-4-yl)carbamate]
IC50 [1]: 0.86 nM
IC50 [2]: 0.8 nM

CC1(C)COc2cc(-c3ccc(F)cc3Cl)ccc2C1NC(=O)O[C@@H]1CN2CCC1CC2 (stereo partly drawn) [Example 231, (S)-quinuclidin-3-yl (7-(2-chloro-4-fluorophenyl)-3,3-dimethylchroman-4-yl)carbamate]
IC50 [1]: 0.62 nM
IC50 [2]: 1.5 nM

CC1(C)COc2cc(-c3cc(F)ccc3Cl)ccc2C1NC(=O)O[C@@H]1CN2CCC1CC2 (stereo partly drawn) [Example 232, (S)-quinuclidin-3-yl (7-(2-chloro-5-fluorophenyl)-3,3-dimethylchroman-4-yl)carbamate]
IC50 [1]: 0.41 nM
IC50 [2]: 0.3 nM

CC1(C)COc2cc(-c3ccc(F)cc3F)ccc2C1NC(=O)O[C@@H]1CN2CCC1CC2 (stereo partly drawn) [Example 233, (S)-quinuclidin-3-yl (7-(2,4-difluorophenyl)-3,3-dimethylchroman-4-yl)carbamate]
IC50 [1]: 0.49 nM
IC50 [2]: 3 nM

CC1(C)COc2cc(-c3cc(F)ccc3F)ccc2C1NC(=O)O[C@@H]1CN2CCC1CC2 (stereo partly drawn) [Example 234, (S)-quinuclidin-3-yl (7-(2,5-difluorophenyl)-3,3-dimethylchroman-4-yl)carbamate]
IC50 [1]: 0.4 nM
IC50 [2]: 1.1 nM

CC1(C)COc2cc(-c3cccc(Cl)c3Cl)ccc2C1NC(=O)O[C@@H]1CN2CCC1CC2 (stereo partly drawn) [Example 235, (S)-quinuclidin-3-yl (7-(2,3-dichlorophenyl)-3,3-dimethylchroman-4-yl)carbamate]
IC50 [1]: 0.75 nM
IC50 [2]: 7.1 nM

CC1(C)COc2cc(-c3ccc(F)c(Cl)c3)ccc2C1NC(=O)O[C@@H]1CN2CCC1CC2 (stereo partly drawn) [Example 236, (S)-quinuclidin-3-yl (7-(3-chloro-4-fluorophenyl)-3,3-dimethylchroman-4-yl)carbamate]
IC50 [1]: 0.75 nM
IC50 [2]: 3.6 nM

CC1(C)COc2cc(-c3cccc(F)c3Cl)ccc2C1NC(=O)O[C@@H]1CN2CCC1CC2 (stereo partly drawn) [Example 237, (S)-quinuclidin-3-yl (7-(2-chloro-3-fluorophenyl)-3,3-dimethylchroman-4-yl)carbamate]
IC50 [1]: 0.63 nM
IC50 [2]: 5.1 nM

CC1(C)COc2cc(-c3ccc(F)c(F)c3)ccc2C1NC(=O)O[C@@H]1CN2CCC1CC2 (stereo partly drawn) [Example 238, (S)-quinuclidin-3-yl (7-(3,4-difluorophenyl)-3,3-dimethylchroman-4-yl)carbamate]
IC50 [1]: 0.47 nM
IC50 [2]: 5.9 nM

CC1(C)COc2cc(-c3cccc(F)c3F)ccc2C1NC(=O)O[C@@H]1CN2CCC1CC2 (stereo partly drawn) [Example 239, (S)-quinuclidin-3-yl (7-(2,3-difluorophenyl)-3,3-dimethylchroman-4-yl)carbamate]
IC50 [1]: 0.47 nM
IC50 [2]: 4.8 nM

CC1(C)COc2cc(-c3cc(F)cc(F)c3)ccc2C1NC(=O)O[C@@H]1CN2CCC1CC2 (stereo partly drawn) [Example 240, (S)-quinuclidin-3-yl (7-(3,5-difluorophenyl)-3,3-dimethylchroman-4-yl)carbamate]
IC50 [1]: 0.92 nM
IC50 [2]: 5 nM

COc1ccc(-c2ccc3c(c2)OCC(C)(C)C3NC(=O)O[C@@H]2CN3CCC2CC3)cn1 (stereo partly drawn) [Example 241, (S)-quinuclidin-3-yl (7-(6-methoxypyridin-3-yl)-3,3-dimethylchroman-4-yl)carbamate]
IC50 [1]: 0.81 nM
IC50 [2]: 24.1 nM

CC1(C)COc2cc(-c3ccc(-c4ccccc4)cc3)ccc2C1NC(=O)O[C@@H]1CN2CCC1CC2 (stereo partly drawn) [Example 242, (S)-quinuclidin-3-yl (7-([1,1′-biphenyl]-4-yl)-3,3-dimethylchroman-4-yl)carbamate]
IC50 [1]: 0.53 nM
IC50 [2]: 3.8 nM

CC1(C)COc2cc(-c3cncs3)ccc2C1NC(=O)O[C@@H]1CN2CCC1CC2 (stereo partly drawn) [Example 243, (S)-quinuclidin-3-yl (3,3-dimethyl-7-(thiazol-5-yl)chroman-4-yl)carbamate]
IC50 [1]: 1.9 nM
IC50 [2]: 24.1 nM

C=Cc1cccc(-c2ccc3c(c2)OCC(C)(C)C3NC(=O)O[C@@H]2CN3CCC2CC3)c1 (stereo partly drawn) [Example 244, (S)-quinuclidin-3-yl (3,3-dimethyl-7-(3-vinylphenyl)chroman-4-yl)carbamate]
IC50 [1]: 0.42 nM
IC50 [2]: 0.6 nM

COc1ncccc1-c1ccc2c(c1)OCC(C)(C)C2NC(=O)O[C@@H]1CN2CCC1CC2 (stereo partly drawn) [Example 245, (S)-quinuclidin-3-yl (7-(2-methoxypyridin-3-yl)-3,3-dimethylchroman-4-yl)carbamate]
IC50 [1]: 0.95 nM
IC50 [2]: 4.7 nM

COc1cccc(-c2ccc3c(c2)OCC(C)(C)C3NC(=O)O[C@@H]2CN3CCC2CC3)n1 (stereo partly drawn) [Example 246, (S)-quinuclidin-3-yl (7-(6-methoxypyridin-2-yl)-3,3-dimethylchroman-4-yl)carbamate]
IC50 [1]: 0.75 nM
IC50 [2]: 1.3 nM

CC1(C)COc2cc(-c3ccc(C#N)cc3)ccc2C1NC(=O)O[C@@H]1CN2CCC1CC2 (stereo partly drawn) [Example 247, (S)-quinuclidin-3-yl (7-(4-cyanophenyl)-3,3-dimethylchroman-4-yl)carbamate]
IC50 [1]: 0.58 nM
IC50 [2]: 10.7 nM

Cc1ccc(-c2ccc3c(c2)OCC(C)(C)C3NC(=O)O[C@@H]2CN3CCC2CC3)c(F)n1 (stereo partly drawn) [Example 248, (S)-quinuclidin-3-yl (7-(2-fluoro-6-methylpyridin-3-yl)-3,3-dimethylchroman-4-yl)carbamate]
IC50 [1]: 0.86 nM
IC50 [2]: 29.6 nM

CC1(C)COc2cc(-c3ccc4c(c3)OCO4)ccc2C1NC(=O)O[C@@H]1CN2CCC1CC2 (stereo partly drawn) [Example 249, (S)-quinuclidin-3-yl (7-(benzo[d][1,3]dioxol-5-yl)-3,3-dimethylchroman-4-yl)carbamate]
IC50 [1]: 0.39 nM
IC50 [2]: 4 nM

CC1(C)COc2cc(-c3ccc(C4CC4)nc3)ccc2C1NC(=O)O[C@@H]1CN2CCC1CC2 (stereo partly drawn) [Example 250, (S)-quinuclidin-3-yl (7-(6-cyclopropylpyridin-3-yl)-3,3-dimethylchroman-4-yl)carbamate]
IC50 [1]: 0.35 nM
IC50 [2]: 5.4 nM

CN(C)c1ccc(-c2ccc3c(c2)OCC(C)(C)C3NC(=O)O[C@@H]2CN3CCC2CC3)cn1 (stereo partly drawn) [Example 251, (S)-quinuclidin-3-yl (7-(6-(dimethylamino)pyridin-3-yl)-3,3-dimethylchroman-4-yl)carbamate]
IC50 [1]: 1.64 nM
IC50 [2]: 17.5 nM

COc1ccc(F)cc1-c1ccc2c(c1)OCC(C)(C)C2NC(=O)O[C@@H]1CN2CCC1CC2 (stereo partly drawn) [Example 252, (S)-quinuclidin-3-yl (7-(5-fluoro-2-methoxyphenyl)-3,3-dimethylchroman-4-yl)carbamate]
IC50 [1]: 0.54 nM
IC50 [2]: 1.4 nM

CCOc1ccc(-c2ccc3c(c2)OCC(C)(C)C3NC(=O)O[C@@H]2CN3CCC2CC3)cn1 (stereo partly drawn) [Example 253, (S)-quinuclidin-3-yl (7-(6-ethoxypyridin-3-yl)-3,3-dimethylchroman-4-yl)carbamate]
IC50 [1]: 0.76 nM
IC50 [2]: 6.4 nM
